Results: US9801898B2, “Glutamate dehydrogenase 1 inhibitors and methods of treating cancer” (Emory University, priority 2015, dated 2017)
“Also recorded” adds a separate entry of the source.

Legend:
[1] = biological target: T1, fumarate hydratase (FH) (Homo sapiens, UniProt P07954); experiment: FH enzyme activity in vitro; type: biochemical
T1 sequence (P07954 45-510): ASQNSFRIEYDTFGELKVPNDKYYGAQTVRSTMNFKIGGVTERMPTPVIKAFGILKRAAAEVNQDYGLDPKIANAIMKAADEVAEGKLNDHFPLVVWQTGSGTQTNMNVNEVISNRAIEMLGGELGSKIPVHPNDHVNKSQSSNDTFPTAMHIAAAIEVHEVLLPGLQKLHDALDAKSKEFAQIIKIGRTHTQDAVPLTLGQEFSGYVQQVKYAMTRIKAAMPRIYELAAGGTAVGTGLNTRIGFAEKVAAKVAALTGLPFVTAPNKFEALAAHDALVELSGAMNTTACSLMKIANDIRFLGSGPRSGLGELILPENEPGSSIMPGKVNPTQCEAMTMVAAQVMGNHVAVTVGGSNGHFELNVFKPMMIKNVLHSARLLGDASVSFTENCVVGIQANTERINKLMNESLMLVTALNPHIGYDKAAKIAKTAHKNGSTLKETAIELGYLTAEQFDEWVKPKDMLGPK

[2] = biological target: T2, GDH1 (Homo sapiens, UniProt P00367); conditions: cited from earlier work
[3] = biological target: T3, 6-phosphogluconate dehydrogenase (6PGD) (Homo sapiens, UniProt P52209); experiment: 6PGD enzyme activity in vitro; type: biochemical
T3 sequence (P52209 1-483): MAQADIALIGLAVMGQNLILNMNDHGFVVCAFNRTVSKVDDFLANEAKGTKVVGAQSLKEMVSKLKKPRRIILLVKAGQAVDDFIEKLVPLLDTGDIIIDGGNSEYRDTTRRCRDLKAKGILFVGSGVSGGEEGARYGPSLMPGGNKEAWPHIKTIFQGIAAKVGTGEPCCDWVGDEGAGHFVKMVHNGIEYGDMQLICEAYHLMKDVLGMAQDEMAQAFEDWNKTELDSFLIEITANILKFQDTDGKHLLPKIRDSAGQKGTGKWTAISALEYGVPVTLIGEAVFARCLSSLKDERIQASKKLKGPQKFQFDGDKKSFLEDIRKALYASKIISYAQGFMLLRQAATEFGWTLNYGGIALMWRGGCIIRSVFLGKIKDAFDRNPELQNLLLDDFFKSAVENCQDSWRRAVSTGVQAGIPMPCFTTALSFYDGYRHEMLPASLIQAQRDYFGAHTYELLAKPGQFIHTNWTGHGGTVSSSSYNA

[4] = system: H1299 and MDA-MB231 cells; experiment: Fumarate, GPx activity and ROS levels in R162-treated cells; type: cell-based, human
Method: (§1) GDH1 enzyme activity assay was performed. Total cell lysates (20 microg) or 100 ng of purified GDH1 was added to a reaction mixture containing 50 mM triethanolamine (pH 8.0), 100 mM ammoniumacetate, 100 microM NADPH, and 2.6 mM EDTA. […] GPx, SOD, TRX, GSR, and CAT enzyme activities were determined by using commercially available kits from Biovision according to the manufacturer's instructions. PRX enzyme activity was assayed by coupling its activity to oxidation of NADPH via TRXs.

[5] = system: H1299 GDH1 knockdown xenograft; experiment: NAC rescue in H1299 GDH1 knockdown xenograft mice; type: in vivo; conditions: NAC 10 mg/ml drinking water
Method: Nude mice (athymic nu/nu, female, 4-6 weeks old; Harlan) were subcutaneously injected with H1299 cells harboring empty vector on the left flank, and cells with stable knockdown of GDH1 on the right flank, respectively. For the NAC rescue experiment, mice of the NAC rescue group were treated with NAC drinking water at 10 mg/ml from 3 days after H1299-GDH1 shRNA cells injection for 42 days. […] Tumor growth was recorded by measurement of two perpendicular diameters of the tumors, and tumor size was calculated. The tumors were harvested and weighed at the experimental endpoint.
Nude mice were subcutaneously injected with control H1299 cells harboring empty vector or GDH1 knockdown cells. NAC at a concentration of 10 mg/ml was administered via drinking water to half of the mice injected with GDH1 knockdown cells.

[6] = system: GDH1 knockdown cells (H1299, MDA-MB231); experiment: Rescue experiments in GDH1 knockdown cancer cells; type: cell-based, human
Method: (§2) Adherent cells or leukemia cells were seeded in six-well plate, and cell numbers were determined by trypan blue exclusion using TC10 automated cell counter (Bio-Rad).

[7] = biological target: T4, GPx1 (Homo sapiens, UniProt P07203); experiment: Radiometric 14C-fumarate/14C-alpha-KG-GPx1 binding assay
T4 construct: made in house; host or cells: 293T cells (transfected)
T4 sequence (P07203 1-203): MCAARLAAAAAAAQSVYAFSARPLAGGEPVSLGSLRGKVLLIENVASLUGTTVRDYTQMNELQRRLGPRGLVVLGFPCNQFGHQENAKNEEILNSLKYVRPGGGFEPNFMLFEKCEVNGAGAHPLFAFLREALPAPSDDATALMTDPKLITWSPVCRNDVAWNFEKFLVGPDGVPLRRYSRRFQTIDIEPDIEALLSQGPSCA
Description: The beads were then washed with TBS buffer. The bead-bound GPx1 protein was eluted with 10 microg flag peptides, and radioactivity was detected by liquid scintillation counting.

[8] = biological target: T4, GPx1; experiment: Activity of purified GPx1 in the presence of metabolites; type: biochemical; conditions: physiological concentrations of metabolite; GPx1 from mammalian cells or human erythrocytes
Method: as §1
GPx activity in GDH1 knockdown cells.

[9] = system: H1299 and MDA-MB231 cells; experiment: Cell proliferation assay (cell counting); type: cell-based, human
Method: as §2

[10] = system: H1299 xenograft; experiment: H1299 xenograft nude mice, R162 treatment; type: in vivo
Method: Nude mice (athymic nu/nu, female, 4-6 weeks old; Harlan) were subcutaneously injected with H1299 cells harboring empty vector on the left flank, and cells with stable knockdown of GDH1 on the right flank, respectively. For the NAC rescue experiment, mice of the NAC rescue group were treated with NAC drinking water at 10 mg/ml from 3 days after H1299-GDH1 shRNA cells injection for 42 days. To evaluate the efficacy of R162, the drug was administered from a day after H1299 cells injection by daily intraperitoneal injection of 30 mg/kg for 35 days. Fifty percent of DMSO in PBS was as a diluent control. Tumor growth was recorded by measurement of two perpendicular diameters of the tumors, and tumor size was calculated. The tumors were harvested and weighed at the experimental endpoint. Tumor proliferation was determined by Ki-67 IHC staining.
An in vivo R162 treatment was performed using H1299-xenograft nude mice. A day after xenograft injection, mice were divided into two groups (n=8 per group) and treated with either R162 ([…]) or control DMSO for 35 days.

[11] = biological target: T2, GDH1; experiment: Thermal melt shift assay; type: binding; conditions: increasing concentrations of R162
Method: To examine the interaction between GDH1 and R162, a thermal melt shift assay was performed.

[12] = system: HaCaT, MRC-5 and HFF cells; experiment: Cell viability in control proliferating human cells; type: cell-based; conditions: MRC-5, HFF control proliferative human cells
[13] = system: human lung cancer, breast cancer, and leukemia cell lines; experiment: Cell viability in cancer cell lines; type: cell-based
[14] = system: mononucleocytes in peripheral blood samples from healthy human donors; experiment: Cell viability of mononucleocytes from healthy donors; type: cell-based
[15] = In vivo toxicity study (hematology, histopathology); parameters: species or system mice
Method: The in vivo efficacy of R162 in the treatment of xenograft tumor mouse models was tested. For initial in vivo toxicity studies, 30 mg/kg/day of R162 was administered to mice for 30 days by intraperitoneal injection.

[16] = biological target: T2, GDH1; experiment: GDH1 enzyme activity assay with purified GDH1; type: biochemical; conditions: for potency and specificity for GDH1 inhibition in comparison of purpurin, R162 and EGCG: in vitro and in cancer cells; for inhibitory effect on GDH1 enzyme activity in vitro: purified GDH1
Method: as §1

[17] = system: primary leukemia cells from myeloid leukemia patients; experiment: Cell viability of primary leukemia cells; type: cell-based, human
[18] = biological target: T5, mitochondrial GDH (Homo sapiens, UniProt P00367); experiment: GDH activity in cancer cells treated with compound; type: cell-based; conditions: compared with purpurin; R162 20 microM
T5 construct: GDH activity in cancer cells treated with R162 (20 microM); endogenous in cells; host or cells: cancer cells (probably H1299 and MDA-MB231)
Method: as §1

[19] = Cell permeability; type: in vitro ADME
[20] = biological target: T2, GDH1; experiment: Tryptophan fluorescence binding assay; conditions: purified GDH1, tryptophan fluorescence binding
Method: Purified GDH1 was incubated with increasing concentrations of purpurin.

[21] = R162 20 mg/kg/day for 35 days vs control DMSO

T2 sequence (P00367 54-558): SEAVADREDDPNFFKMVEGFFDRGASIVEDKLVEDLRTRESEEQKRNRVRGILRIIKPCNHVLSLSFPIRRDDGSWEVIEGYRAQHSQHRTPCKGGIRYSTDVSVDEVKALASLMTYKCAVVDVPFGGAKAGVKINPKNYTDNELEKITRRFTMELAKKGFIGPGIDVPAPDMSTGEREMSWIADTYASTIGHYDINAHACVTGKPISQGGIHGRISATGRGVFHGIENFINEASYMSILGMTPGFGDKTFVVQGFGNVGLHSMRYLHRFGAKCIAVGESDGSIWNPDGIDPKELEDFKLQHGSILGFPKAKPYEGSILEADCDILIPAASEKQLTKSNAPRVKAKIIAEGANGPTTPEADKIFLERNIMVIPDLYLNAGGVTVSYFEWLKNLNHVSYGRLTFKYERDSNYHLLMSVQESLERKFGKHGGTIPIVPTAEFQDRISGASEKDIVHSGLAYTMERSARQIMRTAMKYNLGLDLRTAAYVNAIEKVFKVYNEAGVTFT
T5 sequence (P00367 54-558): as above

Question: For `O=C(O[C@@H]1Cc2c(O)cc(O)cc2O[C@@H]1c1cc(O)c(O)c(O)c1)c1cc(O)c(O)c(O)c1` [EGCG, epigallocatechin gallate], which “effect on activity of FH” value [1] is on record?
Answer: The value was “significantly affected activity”.

Question: And the “GDH1 inhibition as reported” value [2]?
Answer: The value was “reported to inhibit GDH1 activity”.

Question: And the “effect on activity of 6PGD” value [3]?
Answer: The value was “significantly affected activity”.

Question: What does the source list for `CC(=O)N[C@@H](CS)C(=O)O` [NAC, N-acetylcysteine]?
Answer: rescue of R162 effects (fumarate, GPx activity, ROS, cell proliferation) ([4]; R162-treated H1299 and MDA-MB231 cells): significantly rescued; rescue of attenuated tumor growth [5]: partially rescued; rescue of increased ROS [6]: significantly rescued; rescue of reduced cell proliferation [6]: significantly rescued

Question: With `O=C(O)/C=C/C(=O)O` [fumarate] as the molecule, how does the “retention of 14C-labeled metabolite on GPx1” value [7] read?
Answer: The value was “retained on GPx1”.

Question: What about the Kd ([7]; read-out: Kd value of the GPx1-fumarate interaction) of the same molecule?
Answer: The Kd was 75.5 ± 5.22 µM.

Question: And the “activity of purified human GPx1” value [8]?
Answer: The value was “significantly increased”.

Question: For `C=CCc1ccc2c(c1O)C(=O)c1ccccc1C2=O` [R162, 2-allyl-1-hydroxyanthracene-9,10-dione], which cell proliferation [9] is on record?
Answer: Its cell proliferation is “reduced cell proliferation”.

Question: What about the tumor growth [10, 21] of the same molecule?
Answer: The tumor growth was “significantly decreased”.

Question: What about the tumor masses [10, 21] of the same molecule?
Answer: Its tumor masses is “significantly decreased”.

Question: And the “GDH1 activity in resected tumors” value ([10]; xenograft nude mice)?
Answer: The value was “effectively inhibited GDH1 activity”.

Question: And the “melting temperature (Tm) of GDH1” value [11]?
Answer: Its value is “raised the melting temperature (Tm) in a dose-dependent manner”.

Question: What about the cell viability [12] of the same molecule?
Answer: Its cell viability is “but not in human proliferating cells”.

Question: And the cell viability [13]?
Answer: The cell viability was “attenuated cell viability”.

Question: And the cell viability [14]?
Answer: Its cell viability is “did not affect cell viability”.

Question: And the histopathological change ([15]; 30 mg/kg/day for 30 days, intraperitoneal, vs vehicle)?
Answer: Its histopathological change is “did not result in a significant histopathological change”.

Question: And the Basophils ([15]; mice, 30 mg/kg/day)?
Answer: The Basophils was 0.105 ± 0.06 ×10^3/μl.

Question: What about the Eosinophils ([15]; mice, 30 mg/kg/day) of the same molecule?
Answer: The Eosinophils was 0.21 ± 0.07 ×10^3/μl.

Question: And the HCT ([15]; mice, 30 mg/kg/day)?
Answer: The HCT was 45.95 ± 3.74%.

Question: And the HGB ([15]; mice, 30 mg/kg/day)?
Answer: Its HGB is 11.1 ± 1.55 g/dL.

Question: And the LYM ([15]; mice, 30 mg/kg/day)?
Answer: The LYM was 3.145 ± 0.10 ×10^3/μl.

Question: What about the MCH ([15]; mice, 30 mg/kg/day) of the same molecule?
Answer: Its MCH is 13.35 ± 0.91 pg.

Question: And the MCHC ([15]; mice, 30 mg/kg/day)?
Answer: The MCHC was 24.1 ± 1.41 g/dL.

Question: And the MCV ([15]; mice, 30 mg/kg/day)?
Answer: The MCV was 55.35 ± 0.49 fL.

Question: What about the MONO ([15]; mice, 30 mg/kg/day) of the same molecule?
Answer: The MONO was 0.165 ± 0.007 ×10^3/μl.

Question: What about the MPV ([15]; mice, 30 mg/kg/day) of the same molecule?
Answer: Its MPV is 6.05 ± 0.21 fL.

Question: What about the NEU ([15]; mice, 30 mg/kg/day) of the same molecule?
Answer: Its NEU is 1.71 ± 0.18 ×10^3/μl.

Question: What about the RBC ([15]; mice, 30 mg/kg/day) of the same molecule?
Answer: Its RBC is 8.3 ± 0.60 ×10^6/μl.

Question: What about the RDW ([15]; mice, 30 mg/kg/day) of the same molecule?
Answer: Its RDW is 18.5 ± 0.56%.

Question: What about the WBC ([15]; mice, 30 mg/kg/day) of the same molecule?
Answer: Its WBC is 5.33 ± 0.41 ×10^3/μl.

Question: And the GPx activity ([4]; H1299 and MDA-MB231 cells)?
Answer: The GPx activity was “attenuated GPx activity”.

Question: What about the intracellular fumarate levels ([4]; H1299 and MDA-MB231 cells) of the same molecule?
Answer: The intracellular fumarate levels was “decreased intracellular fumarate levels”.

Question: What about the ROS levels ([4]; cancer cells (H1299, MDA-MB231) treated with R162) of the same molecule?
Answer: Its ROS levels is “elevated ROS levels; also recorded: increased ROS levels”.

Question: And the “mode of inhibition (Lineweaver-Burk plot)” value ([16]; different concentrations of GDH1 substrate alpha-KG)?
Answer: The value was “mixed model inhibitor”.

Question: And the “potency and specificity for GDH1 inhibition in comparison of purpurin, R162 and EGCG” value [16]?
Answer: The value was “more potent and specific”.

Question: What about the “inhibitory effect on GDH1 enzyme activity in vitro” value [16] of the same molecule?
Answer: The value was “potent GDH1 inhibitor”.

Question: And the cell viability [17]?
Answer: Its cell viability is “decreased cell viability”.

Question: What about the “inhibitory effect on mitochondrial GDH activity in cancer cells” value [18] of the same molecule?
Answer: The value was “more potent inhibitory effects”.

Question: And the cell permeability [19]?
Answer: Its cell permeability is “more cell-permeable than purpurin”.

Question: Which “potency and specificity for GDH1 inhibition in comparison of purpurin, R162 and EGCG” value [16] does the source give for `O=C1c2ccccc2C(=O)c2c(O)c(O)cc(O)c21` [purpurin, reference compound] here?
Answer: Its value is “more potent and specific”.

Question: And the “inhibitory effect on GDH1 enzyme activity in vitro” value [16]?
Answer: Its value is “dramatic inhibitory effects”.

Question: What about the Ki ([16]; recombinant, purified active GDH1, in vitro GDH activity assay) of the same molecule?
Answer: Its Ki is 1.9 ± 0.26 µM.

Question: And the Kd [20]?
Answer: Its Kd is 11.5 ± 1.17 µM.

Question: What about the cell permeability [19] of the same molecule?
Answer: Its cell permeability is “not cell permeable”.
